The values below come from paper PMC5438364, “A broad-spectrum bactericidal lipopeptide with anti-biofilm properties” (Scientific Reports, 2017).

One series has as its system S. aureus 29213. It is filed as cell-based, Staphylococcus aureus. On the procedure: (§1) Minimal inhibitory concentration (MIC) was determined using the microdilution assay. Mid-log-phase bacteria at 5 × 10^5 CFU/ml were incubated in a 96-well plate with serial two-fold dilutions of the tested compound for 18–24 hr at 37 °C (final volume of 200 µl). O.D. at 620 nm was measured (Synergy HT, BioTek Instruments, Winooski, VT, USA), and the MIC was determined as the lowest concentration for which no increase in O.D. was detected.

Series [1] is described as follows: Self-assembly in solution by light scattering. It is filed as physicochemical. The following applies: for critical aggregation concentration: light scattering at 90°, 400 nm. On the procedure:
To assess the OAK’s self-assembly in solution, serial two-fold dilutions of the OAK (initial concentration of 200 µM) were prepared in phosphate buffered saline (PBS; 10 mM Na2HPO4, 154 mM NaCl, pH = 7.4) and incubated for 2 hr at room temperature (RT). Light scattering at a 90° angle was measured through a 1 nm slit while holding both excitation and emission at 400 nm (Spectrophotometer Fluorolog-3 FL3–22; Horiba Jobin Yvon, Edison, NJ, USA). To evaluate the disassembly of these aggregates upon bacterial exposure, an OAK solution (200 µM) was incubated (2 hr in PBS, at RT) after which, bacteria were added (10^5 CFU/ml) and the light scattering evolution of these suspensions was monitored as described above.

A further series deals with Porphyromonas. In kind it is cell-based, Porphyromonas gingivalis. The note with it: 48 h. The text has this:
(§2) Gram-negative bacteria tested were: ATCC strains Escherichia coli 25922, 43894, Pseudomonas aeruginosa 27853, 9027, Acinetobacter baumannii 19606, A. caloaceticus 31299, Salmonella Typhimurium 14028, Fusobacterium nucleatum 23726, Porphyromonas gingivalis 53977, clinical isolates E. coli 14182, 14384, U-16327, U-16329, P. aeruginosa 1278, Klebsiella pneumoniae 1287, K2–224, C2, A. baumannii 1279, 1280, 1281, F. nucleatum PK 1594, the engineered E. coli ML-35p and the isogenic K-12 pair AG100, AG100a (ΔacrAB). Dental related bacteria (generous gift of Prof. Doron Steinberg and Gilad Bachrach from the Hebrew University of Jerusalem) appear in bold characters.
Staphylococci, Bacilli, Escherichia, Pseudomonas, Acinetobacter, Salmonella and Klebsiella species were grown in Luria Bertani broth (LB; 5 gr/l NaCl, 5 gr/l yeast extract, 10 gr/l tryptone). Enterococci and E. coli ML-35p were grown in Tryptic Soy Broth (TSB). Listeria and Streptococci were grown in Brain Heart Infusion (BHI). All bacteria were grown over-night at 37 °C with shaking. S. mutans 35668 plated on BHI agar for enumeration was grown for 48 hr. […]
(§3) Minimal inhibitory concentration (MIC) was determined using the microdilution assay. […] O.D. at 620 nm was measured (Synergy HT, BioTek Instruments, Winooski, VT, USA), and the MIC was determined as the lowest concentration for which no increase in O.D. was detected.

Series [2] deals with S. mutans ATCC 35668 biofilm. In words: Anti-biofilm activity on pre-formed biofilm. In kind it is cell-based, Streptococcus mutans. The note with it: ≥0.5 mM, within one hour of exposure, inoculum 10^9 CFU/ml. As for the experimental part: Anti-biofilm activity was evaluated against established biofilms in 96-well plates as follows. 200 µl of mid-log-phase S. mutans 35668 at 5 × 10^5 CFU/ml in BHI containing 2% sucrose were placed in each well, and plates were incubated for 24 hr at 37 °C without shaking. Unattached cells were removed by decanting the plates and biofilms were washed three times with milliQ water. Solutions of the tested compounds were placed on the biofilms for up to 3 hr at 37 °C without shaking. Plates were decanted in 0.5 hr intervals and biofilms were washed three times with milliQ water to remove any compound residues. Biofilms were scraped from the bottom of the wells, suspended in BHI and sonicated for 5 min in a sonication bath, subjected to serial 10-fold dilutions in saline and plated on BHI agar for enumeration.

A further series relates to Pseudomonas. In kind it is cell-based. The note with it: 3 strains; microdilution, LB, 18–24 hr, 37 °C; average of at least 2 independent experiments in duplicate.
Text: as §2
(§4) Staphylococci, Bacilli, Escherichia, Pseudomonas, Acinetobacter, Salmonella and Klebsiella species were grown in Luria Bertani broth (LB; 5 gr/l NaCl, 5 gr/l yeast extract, 10 gr/l tryptone). Enterococci and E. coli ML-35p were grown in Tryptic Soy Broth (TSB). Listeria and Streptococci were grown in Brain Heart Infusion (BHI). All bacteria were grown over-night at 37 °C with shaking. S. mutans 35668 plated on BHI agar for enumeration was grown for 48 hr. S. mutans UA159 was grown in 5% CO2 enriched atmosphere. Fusobacterium and Porphyromonas were grown in Wilkins-Chalgren growth medium and an anaerobic atmosphere.
as §1
A general note: Dilution methods test growth across graded concentrations, often in twofold steps.

Series [3] concerns Gram-negative bacteria (GNB). It is filed as cell-based. The following applies: 24 GNB strains (seven species).
Text: as §2, §4, §1

The test system of a further series is Klebsiella. In kind it is cell-based.
Text: as §2, §4, §1

Series [4] can be described thus: Hydrophobicity by C18 RP-HPLC elution. It is filed as physicochemical. The following applies: chromatographic, RP-HPLC C18 (Vydac), flow 2 ml/min, linear acetonitrile gradient 1%/min. As for the experimental part:
OAKs were synthesized in-house (433 A Peptide Synthesizer; Applied Biosystems, Foster City, CA, USA) by the solid-phase method using 9-fluorenylmethyloxycarbonyl (Fmoc) active-ester chemistry on 4-methylbenzhydrylamine (MBHA) resin. OAKs were then deprotected and cleaved from the resin using trifluoroacetic acid:H2O (95:5) and purified to >95% chromatographic homogeneity by reverse phase high performance liquid chromatography (RP-HPLC) using C18 column (Vydac), a flow rate of 2 ml/min and a linear acetonitrile gradient of 1%/min (Alliance; Waters, Milford, MA, USA). Peaks identity was verified by mass-spectrometry (Xevo G2 Tof; Waters, Milford, MA, USA). Purified OAKs were then lyophilized and kept as dry powder at −20 °C.

The next series concerns E. coli. In kind it is cell-based, Escherichia coli. The note with it: 48 h. As for the experimental part:
as §4, §3

The subject of a further series is S. mutans ATCC 35668. In words: Bactericidal kinetics (time-kill). It is filed as cell-based, Streptococcus mutans. On the procedure: Bactericidal kinetics was assessed by incubating 5 × 10^5 CFU/ml of mid-log-phase bacteria with the OAK for 3 hr at 37 °C with shaking. Aliquots were taken at t = 0, 0.5, 1, 2 and 3 hr, subjected to serial 10-fold dilutions in saline (NaCl = 0.85%) and plated for enumeration after 24–48 hr incubation at 37 °C.

Molecules are shown by their SMILES. Where a SMILES comes first, the peptide text is derived from it. [ ]: non-standard residue; d: D form. The star is where a group is joined. Myristoyl = CCCCCCCCCCCCCC(=O)*; 12Ado = NCCCCCCCCCCCC(=O)O

The term MIC denotes the lowest concentration found to suppress growth. In general, MIC50 refers to an inhibitory concentration at the 50% level, which refers to growth in some studies and to a panel of isolates in others. For `CCCCCCCCCCCCCC(=O)N[C@@H](CCCCN)C(=O)N[C@@H](CCCCN)C(=O)NCCCCCCCCCCCC(=O)N[C@@H](CCCCN)C(N)=O` [C14KKc12K] (Myristoyl-KK[12Ado]K-NH2), in the series on S. aureus 29213, the minimal inhibitory concentration (MIC) was 3 µM. The “disaggregation in presence of bacteria (light scattering)” value in series [1] (OAK 200 µM in PBS, 2 hr RT, then 10^5 CFU/ml S. aureus or E. coli, compared with C12KKc12K) was “greater tendency to disaggregate in presence of bacteria”. Also, the critical aggregation concentration is recorded as 23 ± 3 µM in series [1] (PBS pH 7.4, 2 hr at RT) and 8 ± 1 µM in [1] (supernatant of centrifuged saliva). For the same compound, the “concentration of sharp divergence of light scattering pattern (higher amplitudes)” value in series [1] (PBS pH 7.4, 2 hr at RT, two-fold dilutions from 200 µM) is listed as ~ 20 µM. Moreover, the MIC range with Porphyromonas is 3.12 µM; in the series with Pseudomonas, 6.25 to 12.5 µM; in the series on Klebsiella it was 3.12 to 12.5 µM. For the same compound, the “killing of the initial inoculum in preformed biofilm” value in [2] is above 99%. Also, the MIC50 in series [3] is listed as 6 µM. The “H, hydrophobicity, defined as % acetonitrile eluent in C18 HPLC column” value in [4] stood at 54%. Further, the “MIC E.c.” value in the series with E. coli is given as 3.12 µM. Moreover, in the series on S. mutans ATCC 35668 (time-kill kinetics in BHI), the bactericidal concentration stood at 1.56 µM. Further, the reduction of viability in the series with S. mutans ATCC 35668 (within 2 hours exposure to 1.56 µM, 5 × 10^5 CFU/ml, 37 °C) is ~ 2 log units.
